This is an account of results in PMC5540273, “Progress towards a public chemogenomic set for protein kinases and a call for contributions” (PLoS ONE, 2017).

Assay in all cases: KINOMEscan competition binding
The target in one assay is T1, ANKK1 (Homo sapiens, UniProt Q8NFD2).
T1 sequence (Q8NFD2 1-765): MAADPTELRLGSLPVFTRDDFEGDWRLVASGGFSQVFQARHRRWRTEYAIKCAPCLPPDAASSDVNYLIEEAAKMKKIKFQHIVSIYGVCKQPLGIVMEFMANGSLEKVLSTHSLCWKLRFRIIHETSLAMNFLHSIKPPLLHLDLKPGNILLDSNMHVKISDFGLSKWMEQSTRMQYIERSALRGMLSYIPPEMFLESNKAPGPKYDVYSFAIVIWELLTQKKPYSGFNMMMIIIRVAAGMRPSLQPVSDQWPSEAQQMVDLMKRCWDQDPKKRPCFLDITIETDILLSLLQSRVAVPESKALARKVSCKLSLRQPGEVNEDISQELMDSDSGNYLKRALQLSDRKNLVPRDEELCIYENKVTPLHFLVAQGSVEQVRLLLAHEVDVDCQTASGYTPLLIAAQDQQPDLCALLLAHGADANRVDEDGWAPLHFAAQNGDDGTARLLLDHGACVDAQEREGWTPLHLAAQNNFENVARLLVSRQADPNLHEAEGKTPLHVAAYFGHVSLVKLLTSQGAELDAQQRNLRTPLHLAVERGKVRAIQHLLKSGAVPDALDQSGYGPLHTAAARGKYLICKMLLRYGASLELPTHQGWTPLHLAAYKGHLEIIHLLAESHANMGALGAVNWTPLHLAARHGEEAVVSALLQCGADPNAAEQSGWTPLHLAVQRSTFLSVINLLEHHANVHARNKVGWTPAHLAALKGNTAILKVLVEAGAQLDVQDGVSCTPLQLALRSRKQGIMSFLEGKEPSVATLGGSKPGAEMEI
To be noted: read-out: %Inh ANKK1.

The target of another assay is T2, ARK5 (Homo sapiens, UniProt O60285).
T2 sequence (O60285 1-661): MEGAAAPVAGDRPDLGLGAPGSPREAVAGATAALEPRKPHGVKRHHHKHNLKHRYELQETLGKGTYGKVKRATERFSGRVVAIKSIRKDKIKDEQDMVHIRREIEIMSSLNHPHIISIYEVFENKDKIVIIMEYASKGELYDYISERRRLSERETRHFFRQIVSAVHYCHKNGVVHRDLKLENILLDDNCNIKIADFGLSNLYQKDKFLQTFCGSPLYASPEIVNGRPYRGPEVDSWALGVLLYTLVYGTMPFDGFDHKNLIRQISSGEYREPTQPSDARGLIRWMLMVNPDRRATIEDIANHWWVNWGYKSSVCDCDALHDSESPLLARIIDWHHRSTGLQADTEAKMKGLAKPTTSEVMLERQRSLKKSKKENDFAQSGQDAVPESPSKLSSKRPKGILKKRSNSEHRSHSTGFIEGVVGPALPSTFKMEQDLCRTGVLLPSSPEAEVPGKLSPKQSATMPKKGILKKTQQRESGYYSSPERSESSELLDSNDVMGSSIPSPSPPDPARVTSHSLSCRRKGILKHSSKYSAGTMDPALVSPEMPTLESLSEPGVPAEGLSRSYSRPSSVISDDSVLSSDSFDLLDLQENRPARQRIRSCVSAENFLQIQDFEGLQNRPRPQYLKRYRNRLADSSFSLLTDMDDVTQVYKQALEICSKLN
To be noted: read-out: %Inh ARK5.

The target of another assay is CDK9 (Homo sapiens, UniProt P50750). To be noted: read-out: %Inh CDK9.
A further assay concerns the target DAPK3 (Homo sapiens, UniProt O43293). Particulars: read-out: %Inh DAPK3.
A further assay has as its target T3, DDR2 (Homo sapiens, UniProt Q16832).
T3 sequence (Q16832 22-855): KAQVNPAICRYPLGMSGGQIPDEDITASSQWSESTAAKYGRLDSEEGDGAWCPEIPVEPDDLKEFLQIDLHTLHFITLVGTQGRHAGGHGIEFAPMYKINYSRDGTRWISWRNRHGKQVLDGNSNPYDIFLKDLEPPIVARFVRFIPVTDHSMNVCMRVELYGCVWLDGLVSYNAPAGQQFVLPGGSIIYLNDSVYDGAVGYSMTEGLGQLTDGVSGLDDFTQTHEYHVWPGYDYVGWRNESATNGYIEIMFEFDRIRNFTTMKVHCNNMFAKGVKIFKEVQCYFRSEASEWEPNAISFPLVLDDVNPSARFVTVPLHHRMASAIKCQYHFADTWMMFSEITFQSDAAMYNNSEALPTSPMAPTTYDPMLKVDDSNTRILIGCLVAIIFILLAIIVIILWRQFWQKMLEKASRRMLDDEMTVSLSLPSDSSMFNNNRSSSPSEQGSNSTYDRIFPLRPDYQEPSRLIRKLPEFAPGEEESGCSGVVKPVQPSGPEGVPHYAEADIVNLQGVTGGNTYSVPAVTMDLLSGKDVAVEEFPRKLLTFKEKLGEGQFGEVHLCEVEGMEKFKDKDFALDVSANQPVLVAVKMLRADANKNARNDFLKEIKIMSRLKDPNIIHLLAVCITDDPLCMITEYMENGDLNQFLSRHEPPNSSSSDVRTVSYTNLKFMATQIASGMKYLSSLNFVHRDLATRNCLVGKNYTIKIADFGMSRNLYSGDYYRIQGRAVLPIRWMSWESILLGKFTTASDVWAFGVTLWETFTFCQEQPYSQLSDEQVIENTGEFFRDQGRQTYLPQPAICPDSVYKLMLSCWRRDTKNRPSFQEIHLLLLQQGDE
To be noted: read-out: %Inh DDR2.

Another assay addresses HPK1 (Homo sapiens, UniProt Q92918). Particulars: read-out: %Inh HPK1.

Chain of HPK1 (Q92918 whole entry): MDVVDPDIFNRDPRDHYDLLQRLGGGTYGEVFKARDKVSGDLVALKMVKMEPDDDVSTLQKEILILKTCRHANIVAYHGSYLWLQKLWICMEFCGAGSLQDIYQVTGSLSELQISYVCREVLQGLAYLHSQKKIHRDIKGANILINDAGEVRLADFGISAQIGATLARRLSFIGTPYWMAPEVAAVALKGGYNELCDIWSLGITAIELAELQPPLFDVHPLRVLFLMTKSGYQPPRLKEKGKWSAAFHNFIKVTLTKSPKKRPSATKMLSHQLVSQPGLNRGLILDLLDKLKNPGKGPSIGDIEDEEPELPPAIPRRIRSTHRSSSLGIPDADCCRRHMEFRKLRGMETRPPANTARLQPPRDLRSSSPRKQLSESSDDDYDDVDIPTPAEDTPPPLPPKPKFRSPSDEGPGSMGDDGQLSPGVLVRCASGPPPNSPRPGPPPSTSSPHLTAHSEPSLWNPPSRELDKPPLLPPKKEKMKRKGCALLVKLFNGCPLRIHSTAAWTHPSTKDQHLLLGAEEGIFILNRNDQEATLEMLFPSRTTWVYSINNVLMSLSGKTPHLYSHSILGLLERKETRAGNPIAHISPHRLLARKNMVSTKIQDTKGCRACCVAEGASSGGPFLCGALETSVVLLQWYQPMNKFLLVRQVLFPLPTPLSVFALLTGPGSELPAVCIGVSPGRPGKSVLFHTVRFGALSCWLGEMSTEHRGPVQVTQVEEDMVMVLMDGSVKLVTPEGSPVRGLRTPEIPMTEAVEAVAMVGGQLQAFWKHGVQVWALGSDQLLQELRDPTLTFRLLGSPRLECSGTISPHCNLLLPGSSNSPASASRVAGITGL
Chain of CDK9 (P50750 whole entry): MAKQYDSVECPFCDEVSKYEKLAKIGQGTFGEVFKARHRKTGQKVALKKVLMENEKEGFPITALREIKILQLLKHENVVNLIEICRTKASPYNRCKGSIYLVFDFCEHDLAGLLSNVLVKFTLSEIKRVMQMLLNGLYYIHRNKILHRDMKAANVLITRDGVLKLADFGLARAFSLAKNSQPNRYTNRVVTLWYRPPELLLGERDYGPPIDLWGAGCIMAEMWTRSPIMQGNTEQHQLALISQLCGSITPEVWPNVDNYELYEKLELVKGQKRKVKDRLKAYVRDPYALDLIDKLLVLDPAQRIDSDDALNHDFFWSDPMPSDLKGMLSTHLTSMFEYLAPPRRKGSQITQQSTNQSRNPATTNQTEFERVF
Chain of DAPK3 (O43293 whole entry): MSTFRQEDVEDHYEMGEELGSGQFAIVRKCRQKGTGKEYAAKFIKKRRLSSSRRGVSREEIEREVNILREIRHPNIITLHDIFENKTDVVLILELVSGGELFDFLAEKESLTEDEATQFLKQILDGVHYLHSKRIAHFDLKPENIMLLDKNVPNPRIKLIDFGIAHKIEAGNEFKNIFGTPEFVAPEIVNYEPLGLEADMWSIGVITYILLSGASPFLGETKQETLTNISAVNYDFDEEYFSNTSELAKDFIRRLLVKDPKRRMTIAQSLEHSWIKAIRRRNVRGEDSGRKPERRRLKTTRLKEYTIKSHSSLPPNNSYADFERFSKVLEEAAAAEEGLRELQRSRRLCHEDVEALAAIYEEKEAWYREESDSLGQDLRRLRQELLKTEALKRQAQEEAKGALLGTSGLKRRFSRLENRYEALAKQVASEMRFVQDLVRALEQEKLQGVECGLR

For `Cn1cc(-c2cnc(N)c3c(-c4ccc5c(c4)CCN5C(=O)Cc4ccccc4)csc23)cn1` [UNC10225012A], the inhibition at 1 µM was 0% at ANKK1; 3% on ARK5; 0% on CDK9; 7% on DAPK3; 24% on DDR2; 94% on HPK1.

As for `CS(=O)(=O)Cc1ccc(Nc2nccc(-c3c(-c4cccc(NC(=O)C5CCCCC5)c4)nn4ncccc34)n2)cc1` [UNC10225159A], the inhibition at 1 µM at ANKK1 came out at 0%; at ARK5, 0%; on CDK9, 0%; at DAPK3 it was 0%; at DDR2, 54%; at HPK1, 14%.

As to `Cc1ccc(NC(=O)Nc2cccc(C(F)(F)F)c2)cc1` [UNC10225187A], the inhibition at 1 µM came to 0% on ANKK1; 0% on ARK5; 0% at CDK9; 24% on DAPK3; 65% at DDR2; 0% at HPK1.

Take `COc1cccc(OC)c1C(=O)Nc1cccc(-c2nn3ccccc3c2-c2ccnc(Nc3cccc(F)c3)n2)c1` [UNC10225310A]: the inhibition at 1 µM at ANKK1 was found to be 93.2%; on ARK5, 0%; at CDK9, 0%; at DAPK3, 0%; on DDR2, 57%; on HPK1, 2%.

For `O=c1cc(N2CCOCC2)nc2n(Cc3cccc(Cl)c3Cl)c(C3CC3)nn12` [UNC10225469A], the inhibition at 1 µM came to 0% at ANKK1; 0% on ARK5; 0% on CDK9; 6% on DAPK3; 0% at DDR2; 14% at HPK1.
